What was measured:
[1] = biological target: T1, Factor XIIIa (Homo sapiens, UniProt P00488); assay: Factor XIIIa dependency of incorporation (dimethylcasein uptake, normal vs Factor XIII deficient plasma); type: biochemical; conditions: 1 KBq/ml, 60 minutes; uptake in normal plasma minus Factor XIII deficient plasma
T1 construct: Factor XIII is transformed into its active form Factor XIIIa by thrombin in the presence of calcium ions; from tissue; host or cells: human plasma
T1 sequence (P00488 39-732 limits assumed): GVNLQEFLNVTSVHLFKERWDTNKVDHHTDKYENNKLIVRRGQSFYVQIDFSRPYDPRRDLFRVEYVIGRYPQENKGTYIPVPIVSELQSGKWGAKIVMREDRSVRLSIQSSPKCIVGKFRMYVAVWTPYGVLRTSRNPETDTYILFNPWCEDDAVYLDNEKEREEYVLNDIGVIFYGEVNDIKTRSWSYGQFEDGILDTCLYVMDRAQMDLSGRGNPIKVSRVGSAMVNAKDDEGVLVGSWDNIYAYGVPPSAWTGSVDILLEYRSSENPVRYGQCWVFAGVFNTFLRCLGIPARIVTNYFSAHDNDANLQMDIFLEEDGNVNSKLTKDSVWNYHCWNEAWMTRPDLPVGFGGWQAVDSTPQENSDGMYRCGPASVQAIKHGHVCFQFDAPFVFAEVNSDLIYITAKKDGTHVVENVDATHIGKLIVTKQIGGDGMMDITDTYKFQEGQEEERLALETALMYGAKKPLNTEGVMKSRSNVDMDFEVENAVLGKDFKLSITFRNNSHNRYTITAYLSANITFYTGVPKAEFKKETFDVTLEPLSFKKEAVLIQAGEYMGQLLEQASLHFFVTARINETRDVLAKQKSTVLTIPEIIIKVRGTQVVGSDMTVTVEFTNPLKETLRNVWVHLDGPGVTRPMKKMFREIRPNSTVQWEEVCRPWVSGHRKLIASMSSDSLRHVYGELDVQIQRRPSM
Protocol: The assay was changed by replacing the mercaptoethanol with aprotinin at a final concentration of 2 μg/ml, and dimethylcasein (DMC) was used instead of casein.

[2] = Normal rat biodistribution; type: in vivo; conditions: i.v., male Wistar rats, Mean±SD n=3
How it was run: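 Male Wistar rats (100–150 g) received radiolabelled tracer (8 MBq/ml, 0.1–0.2 ml) i.v. and were dissected mostly at 2, 15, 30, 60 and 240 min. Tissue uptake as % ID, mean±SD, n=3; urine and faeces excretion collected in metabolism cages.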

[3] = system: human plasma clots; assay: Incorporation into human plasma clots (in vitro plasma clot assay); type: biochemical; conditions: control vials without thrombin and calcium chloride, 60 minutes
[4] = biological target: T2, human plasma clots (Homo sapiens, UniProt P00488); assay: as above; type: biochemical
T2 construct: Factor XIII is transformed into its active form Factor XIIIa by thrombin in the presence of calcium ions; from tissue; host or cells: human plasma, clotted in vitro with thrombin and calcium chloride
T2 sequence (P00488 39-732): T1 sequence (P00488 39-732 limits assumed)

[5] = system: clots induced in rat inferior vena cava; assay: Incorporation into clots induced in a rat model (rat inferior vena cava model); type: in vivo; conditions: rat IVC model
How it was run: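 Male Wistar rats (250-350 g) were anaesthetised with 15% urethane, and compounds were injected 5 min after clot induction. Animals were killed at 60 min, and clots (about 27 mg) and tissues were weighed and counted. Uptake was given as cpm/g clot by dose/g animal and as clot-to-background ratios.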

[6] = compound injected 5 min post-induction, clot removed after 60 min

**Q.** Which “% specific DMC casein uptake” value [1] does the source give for CC(=NO)C(C)(C)NCC(C)(CNC(=O)c1ccc(S(=O)(=O)NCCCCCN)cc1)CNC(C)(C)C(C)=NO (stereo not shown) [Compound 3, 3,3,6,9,9-pentamethyl-6-(4-(N-(5-aminopentyl)amidosulphonyl)benzamidomethyl)-4,8-diazaundecane-2,10-dione dioxime] here?
**A.** 40%

**Q.** And the “% ID Blood” value ([2]; 2 min post-injection)?
**A.** 19.29 ± 1.7 % ID

**Q.** And the “% ID GI Tract” value ([2]; 2 min post-injection)?
**A.** 10.1 ± 1.2 % ID

**Q.** And the “% ID Heart” value ([2]; 2 min post-injection)?
**A.** 0.51 + 0.08 % ID

**Q.** And the “% ID Kidney” value ([2]; 2 min post-injection)?
**A.** 5.55 + 1 % ID

**Q.** What about the “% ID Liver” value ([2]; 2 min post-injection) of the same molecule?
**A.** 19.34 ± 0.8 % ID

**Q.** And the “% ID Lung” value ([2]; 2 min post-injection)?
**A.** 1.43 ± 0.16 % ID

**Q.** And the “% ID Muscle” value ([2]; 2 min post-injection)?
**A.** 23.6 ± 0.9 % ID

**Q.** What about the “% ID Urine” value ([2]; 2 min post-injection) of the same molecule?
**A.** 0.06 ± 0.02 % ID

**Q.** And the “% ID Blood” value ([2]; 15 min post-injection)?
**A.** 1.45 ± 0.38 % ID

**Q.** What about the “% ID GI Tract” value ([2]; 15 min post-injection) of the same molecule?
**A.** 70 + 3.4 % ID

**Q.** What about the “% ID Kidney” value ([2]; 15 min post-injection) of the same molecule?
**A.** 2.1 ± 0.8 % ID

**Q.** And the “% ID Liver” value ([2]; 15 min post-injection)?
**A.** 7.79 ± 1.16 % ID

**Q.** What about the “% ID Lung” value ([2]; 15 min post-injection) of the same molecule?
**A.** 0.23 ± 0.12 % ID

**Q.** What about the “% ID Muscle” value ([2]; 15 min post-injection) of the same molecule?
**A.** 4.87 ± 0.6 % ID

**Q.** What about the “% ID Urine” value ([2]; 15 min post-injection) of the same molecule?
**A.** 5.01 ± 2.53 % ID

**Q.** And the “% ID Blood” value ([2]; 30 min post-injection)?
**A.** 0.59 ± 0.07 % ID

**Q.** And the “% ID GI Tract” value ([2]; 30 min post-injection)?
**A.** 76.5 ± 5.6 % ID

**Q.** And the “% ID Kidney” value ([2]; 30 min post-injection)?
**A.** 2.09 ± 1.87 % ID

**Q.** And the “% ID Liver” value ([2]; 30 min post-injection)?
**A.** 1.95 ± 0.35 % ID

**Q.** What about the “% ID Lung” value ([2]; 30 min post-injection) of the same molecule?
**A.** 0.03 + 0.04 % ID

**Q.** And the “% ID Muscle” value ([2]; 30 min post-injection)?
**A.** 1.53 ± 0.71 % ID

**Q.** What about the “% ID Urine” value ([2]; 30 min post-injection) of the same molecule?
**A.** 14.42 ± 3.78 % ID

**Q.** And the “% ID Blood” value ([2]; 60 min post-injection)?
**A.** 0.31 ± 0.02 % ID

**Q.** And the “% ID GI Tract” value ([2]; 60 min post-injection)?
**A.** 79.9 ± 2.9 % ID

**Q.** What about the “% ID Kidney” value ([2]; 60 min post-injection) of the same molecule?
**A.** 0.57 ± 0.12 % ID

**Q.** What about the “% ID Liver” value ([2]; 60 min post-injection) of the same molecule?
**A.** 1.54 ± 0.29 % ID

**Q.** And the “% ID Lung” value ([2]; 60 min post-injection)?
**A.** 0.07 ± 0.02 % ID

**Q.** And the “% ID Muscle” value ([2]; 60 min post-injection)?
**A.** 1.14 ± 0.48 % ID

**Q.** What about the “% ID Urine” value ([2]; 60 min post-injection) of the same molecule?
**A.** 14.66 ± 2.83 % ID

**Q.** And the “% ID Blood” value ([2]; 240 min post-injection)?
**A.** 0.11 ± 0.07 % ID

**Q.** And the “% ID GI Tract” value ([2]; 240 min post-injection)?
**A.** 83.5 ± 2.2 % ID

**Q.** And the “% ID Kidney” value ([2]; 240 min post-injection)?
**A.** 0.45 ± 0.04 % ID

**Q.** What about the “% ID Liver” value ([2]; 240 min post-injection) of the same molecule?
**A.** 1.35 ± 0.06 % ID

**Q.** What about the “% ID Lung” value ([2]; 240 min post-injection) of the same molecule?
**A.** 0.14 + 0.24 % ID

**Q.** And the “% ID Muscle” value ([2]; 240 min post-injection)?
**A.** 0.8 ± 0.17 % ID

**Q.** And the “% ID Urine” value ([2]; 240 min post-injection)?
**A.** 12.31 ± 1.93 % ID

**Q.** And the “% retained in plasma clot assay (no thrombin)” value [3]?
**A.** 3.0%

**Q.** What about the “% specific uptake*” value ([4]; % retained with thrombin − % retained no thrombin) of the same molecule?
**A.** 19%

**Q.** And the “% retained in plasma clot assay (with thrombin)” value ([4]; human plasma with thrombin and calcium chloride, 60 minutes, ca. 20° C.)?
**A.** 22%

**Q.** What about the Clot/Blood ([5]; 60 min) of the same molecule?
**A.** 2

**Q.** What about the Clot/Heart ([5]; 60 min) of the same molecule?
**A.** 3.4

**Q.** And the Clot/Liver ([5]; 60 min)?
**A.** 0.23

**Q.** And the Clot/Lung ([5]; 60 min)?
**A.** 2.2

**Q.** And the “% ID/g (clot uptake)” value [5, 6]?
**A.** 0.10 ± 0.02 % ID/g

**Q.** What about the “Relative conc (cpm/g of clot by dose/g animal)” value [5, 6] of the same molecule?
**A.** 0.37 ± 0.1

— patent publication US6897209B2, “Labelled factor XIIIa substrates” (GE Healthcare Limited, priority 1997, dated 2005)
